Values of other authors as cited in US20230346892A1, “TREATMENT OF LONG BONE FRACTURES WITH ABALOPARATIDE” (Radius Health, Inc., priority 2021, published 2023).

Legend:
[1] = tested on: internally fixed femur fractures; settings: rats with internally fixed femur fractures; Lanske et al. 2019
[2] = tested on: osteoporosis

## abaloparatide
[1]
  fracture healing: improved fracture healing
[2]; compared with teriparatide, treating osteoporosis, Sleeman 2019, Miller 2016
  bone mineral density increases: greater bone mineral density increases
[2]; in vivo
  hypercalcemia: less hypercalcemia
